Assay results reported in patent US8222404B2, “[1,2,4]Thiadiazin-3-yl acetic acid compound and methods of making the acetic acid compound” (Anadys Pharmaceuticals, Inc., priority 2008, dated 2012).
pEC50: −log10 of the molar value.

Test system: HCV Huh-luc/neo-ET replicon cells
Assay: Luciferase-Based HCV Replicon Assay (EC50 (1b))
Type: cell-based
Conditions: Hepatitis C virus, 72 hours exposure, luciferase activity
Procedure, shortened: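 EC50 (1b) derived from % inhibition of luciferase signal relative to untreated cells, background set by 100 nM BILN-2061 (protease inhibitor). Triplicate dose series added to replicon cells 24 h post-seeding; luminescence measured after 72 h compound exposure.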

Question: With CS(=O)(=O)NCc1csc2c1S(=O)(=O)N=C(C1=C(O)[C@@H]3[C@H]4CC[C@H](C4)[C@@H]3N(Cc3ccc(F)c(Cl)c3)C1=O)N2 [Example 37, N-{3-[(1R,2S,7R,8S)-3-(3-Chloro-4-fluoro-benzyl)-6-hydroxy-4-oxo-3-aza-tricyclo[6.2.1.0^2,7]undec-5-en-5-yl]-1,1-dioxo-1,4-dihydro-1λ^6-thieno[2,3-e][1,2,4]thiadiazin-7-ylmethyl}-methanesulfonamide] as the compound, how does the pEC50 read?
Answer: 7.70 to 8.30

Question: COc1cc(CN2C(=O)C(C3=NS(=O)(=O)c4c(CNS(C)(=O)=O)csc4N3)=C(O)[C@@H]3[C@H]4CC[C@H](C4)[C@@H]32)ccc1F [Example 38, N-{3-[(1R,2S,7R,8S)-3-(4-Fluoro-3-methoxy-benzyl)-6-hydroxy-4-oxo-3-aza-tricyclo[6.2.1.0^2,7]undec-5-en-5-yl]-1,1-dioxo-1,4-dihydro-1λ^6-thieno[2,3-e][1,2,4]thiadiazin-7-ylmethyl}-methanesulfonamide] was tested. Which pEC50 did it give?
Answer: 7.70 to 8.30

Question: With CS(=O)(=O)NCc1csc2c1S(=O)(=O)N=C(C1=C(O)[C@@H]3[C@@H]4CC[C@@H](C4)[C@@H]3N(Cc3ccccc3)C1=O)N2 [Example 39, N-[3-((1S,2S,7R,8R)-3-Benzyl-6-hydroxy-4-oxo-3-aza-tricyclo[6.2.1.0^2,7]undec-5-en-5-yl)-1,1-dioxo-1,4-dihydro-1λ^6-thieno[2,3-e][1,2,4]thiadiazin-7-ylmethyl]-methanesulfonamide] as the compound, how does the pEC50 read?
Answer: 7.70 to 8.30

Question: With CS(=O)(=O)NCc1csc2c1S(=O)(=O)N=C(C1=C(O)[C@@H]3[C@@H]4CC[C@@H](C4)[C@@H]3N(Cc3ccc(F)cc3F)C1=O)N2 [Example 40, N-{3-[(1S,2S,7R,8R)-3-(2,4-Difluoro-benzyl)-6-hydroxy-4-oxo-3-aza-tricyclo[6.2.1.0^2,7]undec-5-en-5-yl]-1,1-dioxo-1,4-dihydro-1λ^6-thieno[2,3-e][1,2,4]thiadiazin-7-ylmethyl}-methanesulfonamide] as the compound, how does the pEC50 read?
Answer: 7.00 to 7.70

Question: CS(=O)(=O)NCc1csc2c1S(=O)(=O)N=C(C1=C(O)[C@@H]3[C@@H]4CC[C@@H](C4)[C@@H]3N(Cc3ccc(F)c(F)c3)C1=O)N2 [Example 41, N-{3-[(1S,2S,7R,8R)-3-(3,4-Difluoro-benzyl)-6-hydroxy-4-oxo-3-aza-tricyclo[6.2.1.0^2,7]undec-5-en-5-yl]-1,1-dioxo-1,4-dihydro-1λ^6-thieno[2,3-e][1,2,4]thiadiazin-7-ylmethyl}-methanesulfonamide] was tested. Which pEC50 did it give?
Answer: 7.70 to 8.30

Question: How did the pEC50 turn out when CS(=O)(=O)NCc1csc2c1S(=O)(=O)N=C(C1=C(O)[C@@H]3[C@@H]4CC[C@@H](C4)[C@@H]3N(Cc3ccc(F)cc3Cl)C1=O)N2 [Example 42, N-{3-[(1S,2S,7R,8R)-3-(2-Chloro-4-fluoro-benzyl)-6-hydroxy-4-oxo-3-aza-tricyclo[6.2.1.0^2,7]undec-5-en-5-yl]-1,1-dioxo-1,4-dihydro-1λ^6-thieno[2,3-e][1,2,4]thiadiazin-7-ylmethyl}-methanesulfonamide] was run?
Answer: 6.00 to 7.00

Question: With COc1cc(CN2C(=O)C(C3=NS(=O)(=O)c4c(CNS(C)(=O)=O)csc4N3)=C(O)[C@@H]3[C@@H]4CC[C@@H](C4)[C@@H]32)ccc1F [Example 43, N-{3-[(1S,2S,7R,8R)-3-(4-Fluoro-3-methoxy-benzyl)-6-hydroxy-4-oxo-3-aza-tricyclo[6.2.1.0^2,7]undec-5-en-5-yl]-1,1-dioxo-1,4-dihydro-1λ^6-thieno[2,3-e][1,2,4]thiadiazin-7-ylmethyl}-methanesulfonamide] as the compound, how does the pEC50 read?
Answer: 7.00 to 7.70

Question: CS(=O)(=O)NCc1csc2c1S(=O)(=O)N=C(C1=C(O)[C@@H]3C4CCC(CC4)[C@@H]3N(Cc3ccc(F)c(Cl)c3)C1=O)N2 [Example 44, N-{3-[(2S,7R)-3-(3-Chloro-4-fluoro-benzyl)-6-hydroxy-4-oxo-3-aza-tricyclo[6.2.2.0^2,7]dodec-5-en-5-yl]-1,1-dioxo-1,4-dihydro-1λ^6-thieno[2,3-e][1,2,4]thiadiazin-7-ylmethyl}-methanesulfonamide] was tested. Which pEC50 did it give?
Answer: ≥ 8.30

Question: How did the pEC50 turn out when CS(=O)(=O)NCc1csc2c1S(=O)(=O)N=C(C1=C(O)[C@@H]3C4CCC(CC4)[C@@H]3N(Cc3ccccc3)C1=O)N2 [Example 48, N-[3-((2S,7R)-3-Benzyl-6-hydroxy-4-oxo-3-aza-tricyclo[6.2.2.0^2,7]dodec-5-en-5-yl)-1,1-dioxo-1,4-dihydro-1λ^6-thieno[2,3-e][1,2,4]thiadiazin-7-ylmethyl]-methanesulfonamide] was run?
Answer: ≥ 8.30

Question: With CS(=O)(=O)NCc1csc2c1S(=O)(=O)N=C(C1=C(O)[C@@H]3[C@H]4CC[C@H](C4)[C@@H]3N(Cc3ccc(F)cc3F)C1=O)N2 [Example 49, N-{3-[(1R,2S,7R,8S)-3-(2,4-Difluoro-benzyl)-6-hydroxy-4-oxo-3-aza-tricyclo[6.2.1.0^2,7]undec-5-en-5-yl]-1,1-dioxo-1,4-dihydro-1λ^6-thieno[2,3-e][1,2,4]thiadiazin-7-ylmethyl}-methanesulfonamide] as the compound, how does the pEC50 read?
Answer: 7.00 to 7.70

Question: How did the pEC50 turn out when CS(=O)(=O)NCc1csc2c1S(=O)(=O)N=C(C1=C(O)[C@@H]3[C@H]4CC[C@H](C4)[C@@H]3N(Cc3ccccc3)C1=O)N2 [Example 50, N-[3-((1R,2S,7R,8S)-3-Benzyl-6-hydroxy-4-oxo-3-aza-tricyclo[6.2.1.0^2,7]undec-5-en-5-yl)-1,1-dioxo-1,4-dihydro-1λ^6-thieno[2,3-e][1,2,4]thiadiazin-7-ylmethyl]-methanesulfonamide] was run?
Answer: ≥ 8.30

Question: How did the pEC50 turn out when CS(=O)(=O)NCc1csc2c1S(=O)(=O)N=C(C1=C(O)[C@@H]3C4CCC(CC4)[C@@H]3N(Cc3ccc(F)cc3F)C1=O)N2 [Example 51, N-{3-[(2S,7R)-3-(2,4-Difluoro-benzyl)-6-hydroxy-4-oxo-3-aza-tricyclo[6.2.2.0^2,7]dodec-5-en-5-yl]-1,1-dioxo-1,4-dihydro-1λ^6-thieno[2,3-e][1,2,4]thiadiazin-7-ylmethyl}-methanesulfonamide] was run?
Answer: 7.00 to 7.70

Question: Cc1cc(CN2C(=O)C(C3=NS(=O)(=O)c4c(CNS(C)(=O)=O)csc4N3)=C(O)[C@@H]3C4CCC(CC4)[C@@H]32)ccc1F [Example 52, N-{3-[(2S,7R)-3-(4-Fluoro-3-methyl-benzyl)-6-hydroxy-4-oxo-3-aza-tricyclo[6.2.2.0^2,7]dodec-5-en-5-yl]-1,1-dioxo-1,4-dihydro-1λ^6-thieno[2,3-e][1,2,4]thiadiazin-7-ylmethyl}-methanesulfonamide] was tested. Which pEC50 did it give?
Answer: ≥ 8.30

Question: Cc1cc(CN2C(=O)C(C3=NS(=O)(=O)c4c(CNS(C)(=O)=O)csc4N3)=C(O)[C@@H]3[C@H]4CC[C@H](C4)[C@@H]32)ccc1F [Example 53, N-{3-[(1R,2S,7R,8S)-3-(4-Fluoro-3-methyl-benzyl)-6-hydroxy-4-oxo-3-aza-tricyclo[6.2.1.0^2,7]undec-5-en-5-yl]-1,1-dioxo-1,4-dihydro-1λ^6-thieno[2,3-e][1,2,4]thiadiazin-7-ylmethyl}-methanesulfonamide] was tested. Which pEC50 did it give?
Answer: 7.70 to 8.30

Question: CS(=O)(=O)NCc1csc2c1S(=O)(=O)N=C(C1=C(O)[C@@H]3[C@H]4CC[C@H](C4)[C@@H]3N(Cc3cc(F)c(F)c(F)c3)C1=O)N2 [Example 54, N-{3-[(1R,2S,7R,8S)-6-Hydroxy-4-oxo-3-(3,4,5-trifluoro-benzyl)-3-aza-tricyclo[6.2.1.0^2,7]undec-5-en-5-yl]-1,1-dioxo-1,4-dihydro-1λ^6-thieno[2,3-e][1,2,4]thiadiazin-7-ylmethyl}-methanesulfonamide] was tested. Which pEC50 did it give?
Answer: 7.70 to 8.30

Question: CS(=O)(=O)NCc1csc2c1S(=O)(=O)N=C(C1=C(O)[C@@H]3[C@H]4CC[C@H](C4)[C@@H]3N(Cc3ccsc3)C1=O)N2 [Example 55, N-[(1R,2S,7R,8S)-3-(6-Hydroxy-4-oxo-3-thiophen-3-ylmethyl-3-aza-tricyclo[6.2.1.0^2,7]undec-5-en-5-yl)-1,1-dioxo-1,4-dihydro-1λ^6-thieno[2,3-e][1,2,4]thiadiazin-7-ylmethyl]-methanesulfonamide] was tested. Which pEC50 did it give?
Answer: ≥ 8.30

Question: Cc1cc(CN2C(=O)C(C3=NS(=O)(=O)c4c(CNS(C)(=O)=O)csc4N3)=C(O)[C@@H]3[C@@H]4CC[C@@H](C4)[C@@H]32)ccc1F [Example 56, N-{3-[(1S,2S,7R,8R)-3-(4-Fluoro-3-methyl-benzyl)-6-hydroxy-4-oxo-3-aza-tricyclo[6.2.1.0^2,7]undec-5-en-5-yl]-1,1-dioxo-1,4-dihydro-1λ^6-thieno[2,3-e][1,2,4]thiadiazin-7-ylmethyl}-methanesulfonamide] was tested. Which pEC50 did it give?
Answer: 7.00 to 7.70

Question: How did the pEC50 turn out when CS(=O)(=O)NCc1csc2c1S(=O)(=O)N=C(C1=C(O)[C@@H]3[C@@H]4CC[C@@H](C4)[C@@H]3N(Cc3cc(F)c(F)c(F)c3)C1=O)N2 [Example 57, N-{3-[(1S,2S,7R,8R)-6-Hydroxy-4-oxo-3-(3,4,5-trifluoro-benzyl)-3-aza-tricyclo[6.2.1.0^2,7]undec-5-en-5-yl]-1,1-dioxo-1,4-dihydro-1λ^6-thieno[2,3-e][1,2,4]thiadiazin-7-ylmethyl}-methanesulfonamide] was run?
Answer: 7.70 to 8.30

Question: How did the pEC50 turn out when CS(=O)(=O)NCc1csc2c1S(=O)(=O)N=C(C1=C(O)[C@@H]3[C@@H]4CC[C@@H](C4)[C@@H]3N(Cc3ccsc3)C1=O)N2 [Example 58, N-[3-((1S,2S,7R,8R)-6-Hydroxy-4-oxo-3-thiophen-3-ylmethyl-3-aza-tricyclo[6.2.1.0^2,7]undec-5-en-5-yl)-1,1-dioxo-1,4-dihydro-1λ^6-thieno[2,3-e][1,2,4]thiadiazin-7-ylmethyl]-methanesulfonamide] was run?
Answer: 7.70 to 8.30

Question: With CC(C)(C)CCN1C(=O)C(C2=NS(=O)(=O)c3c(CNS(C)(=O)=O)csc3N2)=C(O)[C@@H]2[C@@H]3CC[C@@H](C3)[C@@H]21 [Example 59, N-{3-[(1S,2S,7R,8R)-3-(3,3-Dimethyl-butyl)-6-hydroxy-4-oxo-3-aza-tricyclo[6.2.1.0^2,7]undec-5-en-5-yl]-1,1-dioxo-1,4-dihydro-1λ^6-thieno[2,3-e][1,2,4]thiadiazin-7-ylmethyl}-methanesulfonamide] as the compound, how does the pEC50 read?
Answer: 7.00 to 7.70

Question: With CS(=O)(=O)NCc1csc2c1S(=O)(=O)N=C(C1=C(O)[C@@H]3C4CCC(CC4)[C@@H]3N(Cc3ccsc3)C1=O)N2 [Example 60, N-[3-((2S,7R)-6-Hydroxy-4-oxo-3-thiophen-3-ylmethyl-3-aza-tricyclo[6.2.2.0^2,7]dodec-5-en-5-yl)-1,1-dioxo-1,4-dihydro-1λ^6-thieno[2,3-e][1,2,4]thiadiazin-7-ylmethyl]-methanesulfonamide] as the compound, how does the pEC50 read?
Answer: ≥ 8.30
